# According to PubChem BioAssay (NCI):
#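 1) Cells in 96-well plates. 2) Compound, 48 h, 5 concentrations. 3) Linear interpolation between surrounding doses. 4) Unreached endpoint = highest concentration. Here, GI50 denotes the concentration required for 50% inhibition of growth. At the TGI there is no net growth.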
# Key:
# Experiment in all cases: NCI anticancer screen, dose series, 48 h
# [1] = test system: SW-620 colon
# [2] = test system: CAKI-1 renal
# [3] = test system: DU-145 prostate
# [4] = test system: 786-0 renal
# [5] = test system: RPMI-8226 leukemia
# [6] = test system: SN12C renal
# [7] = test system: SF-539 CNS
# [8] = test system: TK-10 renal
# [9] = test system: HCT-15 colon
# [10] = test system: IGROV1 ovarian
Compound,GI50 [1],TGI [1],GI50 [2],TGI [2],GI50 [3],TGI [3],GI50 [4],TGI [4],GI50 [5],TGI [5],GI50 [6],TGI [6],GI50 [7],TGI [7],GI50 [8],TGI [8],GI50 [9],TGI [9],GI50 [10],TGI [10]
COc1cccc(NC2=C(Cl)C(=O)N(Cc3ccc(Cl)cc3)C2=O)c1,0.847 µM,14.7 µM,2.25 µM,17.5 µM,3.8 µM,12.1 µM,1.54 µM,8.39 µM,0.985 µM,> 20.3 µM,2.61 µM,12.9 µM,1.73 µM,5.7 µM,3.45 µM,27.3 µM,1.05 µM,8.62 µM,11.9 µM,> 37.4 µM
CCCCCCCCCCSC(=N)N,1.7 µM,3.52 µM,1.75 µM,5.26 µM,6.63 µM,19.3 µM,4.92 µM,19.5 µM,1.73 µM,4.19 µM,5.09 µM,18.4 µM,10.2 µM,22.1 µM,1.61 µM,4.09 µM,2.01 µM,4.73 µM,2.85 µM,13.3 µM
COC(=O)/C(=N\Nc1nnc(C)n1N)C(C#N)c1ccccc1 (centres undefined),–,> 100 µM,–,> 100 µM,–,> 100 µM,–,> 55.1 µM,–,> 100 µM,–,> 66.7 µM,–,> 100 µM,–,> 100 µM,–,> 100 µM,–,> 100 µM
COc1cc(/C=N/NC(=O)c2ccccc2Nc2cccc(C(F)(F)F)c2)cc(OC)c1OC,1.71 µM,6.36 µM,1.4 µM,4.71 µM,2.61 µM,8.39 µM,3.22 µM,11.6 µM,0.754 µM,> 22.7 µM,5.94 µM,15.4 µM,2.14 µM,5.62 µM,2.36 µM,8.74 µM,2.85 µM,13.2 µM,4.19 µM,14.2 µM
N#C/C(=C\c1ccc2[nH]ccc2c1)C(=O)c1ccc(O)c(O)c1,–,> 100 µM,–,> 100 µM,–,> 100 µM,–,> 100 µM,–,> 100 µM,–,> 100 µM,–,> 100 µM,–,> 100 µM,–,> 100 µM,–,> 100 µM
H-QIYKKYRTWYRKAWKVLGKV-NH2,13 µM,43.6 µM,3.89 µM,19 µM,3.54 µM,11.8 µM,3.04 µM,16.8 µM,6.85 µM,77.7 µM,3.56 µM,15 µM,2.21 µM,4.98 µM,6.35 µM,29.8 µM,2.92 µM,17 µM,3.06 µM,14.1 µM
Cc1ccc(S(=O)(=O)NC(CO)C(=O)O)cc1 (centres undefined),–,> 100 µM,–,> 100 µM,–,> 100 µM,–,> 100 µM,–,> 100 µM,–,> 100 µM,–,> 100 µM,–,> 100 µM,–,> 100 µM,–,> 100 µM
COc1cc(Cn2c(-c3ccccc3)cc3c2-c2oncc2CC3)cc(OC)c1,0.36 µM,> 100 µM,0.354 µM,> 100 µM,0.309 µM,1.25 µM,0.601 µM,> 100 µM,0.459 µM,–,0.738 µM,> 100 µM,0.297 µM,> 49 µM,2.44 µM,> 100 µM,0.361 µM,> 100 µM,0.399 µM,> 100 µM
CN(C(=O)CNC(=O)/C=C/c1cccc(Cl)c1)C1CCS(=O)(=O)CC1,3.51 µM,> 100 µM,3.78 µM,> 100 µM,0.47 µM,> 100 µM,4.57 µM,> 100 µM,14.8 µM,> 100 µM,2.99 µM,> 100 µM,7.28 µM,> 100 µM,2.27 µM,> 100 µM,0.819 µM,> 100 µM,3.05 µM,> 100 µM
Cn1cc(C2=C(c3cn(CCCCC(=N)N)c4ccccc34)C(=O)NC2=O)c2ccccc21,> 25 µM,> 25 µM,> 25 µM,> 25 µM,> 25 µM,> 25 µM,> 25 µM,> 25 µM,> 25 µM,> 25 µM,> 25 µM,> 25 µM,> 21.6 µM,> 25 µM,> 25 µM,> 25 µM,> 25 µM,> 25 µM,> 21.9 µM,> 25 µM
O=C1/C(=C\c2ccccc2)C2OCC=C3CN4CCC56c7ccccc7N1C5C2C3CC46 (centres undefined),> 100 µM,> 100 µM,2.18 µM,32.1 µM,> 100 µM,> 100 µM,9.86 µM,> 100 µM,5.54 µM,> 100 µM,26.2 µM,> 100 µM,61.9 µM,> 100 µM,7.23 µM,73.3 µM,7.77 µM,> 100 µM,4.69 µM,> 100 µM
Cc1ccc(-c2n[nH]c(=O)c3noc(-c4ccc(C)cc4)c23)cc1,0.427 µM,> 100 µM,2.27 µM,> 100 µM,2.82 µM,15.2 µM,2.78 µM,24.9 µM,0.616 µM,> 100 µM,1.4 µM,> 100 µM,0.787 µM,4.14 µM,2.35 µM,14.2 µM,0.651 µM,> 100 µM,1.89 µM,28.6 µM
C/C(=N/O)c1ccc(Nc2cc(-n3ccnc3)c3ccccc3n2)cc1,41.8 µM,> 100 µM,26.6 µM,> 100 µM,38.1 µM,> 100 µM,4.83 µM,> 100 µM,0.716 µM,4.42 µM,39.5 µM,> 100 µM,11.5 µM,> 100 µM,16.4 µM,> 100 µM,14.3 µM,37.3 µM,15.1 µM,52.8 µM
NC(=O)c1ccc(N(C(N)=O)c2c(F)cccc2F)nc1-c1ccc(F)cc1F,> 100 µM,> 100 µM,> 100 µM,> 100 µM,> 100 µM,> 100 µM,> 100 µM,> 100 µM,> 100 µM,> 100 µM,> 100 µM,> 100 µM,> 100 µM,> 100 µM,> 100 µM,> 100 µM,> 100 µM,> 100 µM,> 100 µM,> 100 µM
